According to patent publication US10071103B2, “Treatments for resistant acne” (VYOME BIOSCIENCES PVT. LTD., priority 2014, dated 2018):
In brackets after ≈: the same amount, converted by molar mass.

Key:
[1] = tested on: IL-8; assay: P. acnes-induced IL-8 release in THP-1 cells (ELISA); format: cell-based; conditions: THP-1 cells, Table 71
Description: (§1) Method: Preparation of Stimulant for Inflammation: P. acnes culture suspension was prepared in PBS and the cell number in the suspension was adjusted to approximately 5×10^8 CFU/ml by measuring the cell density using a Densimat. The bacterial suspension was then heat killed at 80° C. for 30 min and stored at −80° C. until further use.
(§2) Cells were seeded in a 96-well format (2×10^5 THP-1 cells per well) in media containing 10% FBS. The cells were stimulated to induce inflammatory cytokines using 3 McFarland equivalent heat-killed P. acnes. Cells in control wells were treated with PBS. One hour after induction with P. acnes, test agents were added to the induced cells at appropriate concentrations to be tested (compound 91 at 25 μg/ml). The plates were incubated at 37° C. for 24 hours. After 24 h, the plates were centrifuged to pellet the cells and the supernatants were collected. The cell culture supernatants thus obtained were analyzed for levels of cytokines (IL-1α, IL-1β, IL-6 and IL-8) by ELISA using R&D Systems kits for individual cytokines following the manufacturer's instructions.
as §1, with “Preparation” for “Method: Preparation”, “stimulant” for “Stimulant”, “inflammation:” for “Inflammation:”
(§3) Cells were seeded in a 96-well format (2×10^5 THP-1 cells per well) in media containing 10% FBS. The cells were stimulated to induce inflammatory cytokines using 3 McFarland equivalent heat-killed P. acnes. Cells in control wells were treated with PBS. One hour after induction with P. acnes, test agents were added to the induced cells at appropriate concentrations (Besifloxacin at 10 and 30 μg/ml; Adapalene at 0.04 and 0.4 μg/ml). The plates were incubated at 37° C. for 24 hours. After 24 h, the plates were centrifuged to pellet the cells and the supernatants were collected. The cell culture supernatants thus obtained were analyzed for cytokine levels (IL-6 and IL-8) by ELISA using R&D Systems kits for individual cytokines following the manufacturer's instructions.

[2] = tested on: IL-6; assay: P. acnes-induced IL-6 release in THP-1 cells (ELISA); format: cell-based; conditions: for Expression of Cytokines IL-6 (pg/ml) Mean: THP-1 cells, Table 71; for Effect on P. acnes-induced IL-6 levels (in words): Example 61, besifloxacin 10, 30 μg/ml, adapalene 0.04, 0.4 μg/ml
Description: as §1, §2
as §1, with “Preparation” for “Method: Preparation”, “stimulant” for “Stimulant”, “inflammation:” for “Inflammation:”
as §3

[3] = tested on: P. acnes MTCC 1951; format: cell-based, Propionibacterium acnes
Description: 3 to 4 Petri plates containing 48 h P. acnes culture was suspended in sterile Phosphate buffer saline, PBS (pH 7.2) and turbidity was adjusted to optical density of 1 at 600 nm (10^9 cells/ml). 50 ml of this culture suspension was centrifuged at 4000 rpm for 40 min. The supernatant was discarded and pellet resuspended in 250 μl of sterile PBS. 50 μl of these cell suspensions (10^10 cells) was spread over the plates containing various concentrations of antibiotics (around MIC range). Plates were incubated at 37° C. for 48 h and the lowest concentration of the drug that allowed no growth was taken as its MPC.

[4] = tested on: P. acnes MTCC 1951; assay: MIC by micro broth dilution (Alamar blue), clindamycin-susceptible P. acnes; format: cell-based, Propionibacterium acnes; conditions: Cutibacterium acnes, MTCC1951; Table 7; against P. acnes; read-out: MIC
Description: The plates were incubated at 37° C. for 48 h under anaerobic condition for P. acnes and 37° C. for 24 h for S. aureus The plates were read under Bio-Rad plate reader at 595 nm for optical density to generate the dose-response curves. The MIC of the test compound was recorded by addition of Alamar blue dye.
P. acnes (MTCC 3297, MTCC 1951& CCARM 9010) are cultured in Brain Heart Infusion (BHI) Broth at 37° C. for 48-72 h under anaerobic condition. The test compounds/formulations are initially diluted with suitable solvent and further diluted with BHI broth to get the required concentrations. Samples (100 μl) of different concentrations (prepared by serial dilution) are added to 96-well plate. To the wells, 100 μl of P. acnes BHI broth culture is added [culture turbidity adjusted against 0.5 McFarland standard (approx 1.5×10^8), and further diluted 100-fold with sterile BHI broth]. In addition Growth Control and Sterility Control are created using 100 μl each of P. acnes BHI broth culture and plain BHI broth, respectively.
Plates are incubated at 37° C. for 48-72 hrs under anaerobic condition. The plate is read under Bio-Rad plate reader @ 595 nm for optical density to generate the dose-response curves. The MIC of the test compound is recorded by addition of Alamar blue dye.
BHI broth and BHI agar media were prepared as per the manufacturer's instruction and autoclaved at 121° C. for 15 minutes. […] For MIC determination testing, gels are dissolved in the solvent and further diluted with BHI broth. Then, 96 wells plate are filled with 100 μl of BHI broth containing drug with different concentration to get the final concentrations of 0.06, 0.13, 0.25, 0.5, 1 and 2 μg/ml in different lanes (lane 1 to lane 6). Remaining lanes of the 96 well plate are used as growth control and sterility control. Finally, P. acnes culture suspension (approx 1.5×10^6) is added in all the wells except sterility control wells and plate is incubated at 37° C. for 48-72 h under anaerobic condition. At the end of 72 h, Alamar blue solution (20 μl) is added into the wells and incubated at 37° C. for 2 h. Plate is visualized for bacterial inhibitions and MIC values of the tested samples are determined. […]

[5] = tested on: P. acnes clinical isolates; assay: MIC of P. acnes isolated from acne patients (clinical isolates);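 note: anaerobic 96-well plate assay at 37 °C over 72 h, with Alamar blue dye as read-out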;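 for MIC: MIC in µg/mL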
Description: P. acnes were cultured in Brain Heart Infusion Agar (BHIA) at 37° C. for 48 hours under anaerobic condition. […] For bacterial inoculum, P. acnes culture turbidity was adjusted to 0.5 McFarland standard (approximately 1.5×10^8) and further diluted (100 times with sterile BHI broth). Diluted P. acnes suspension (100 μl) was added to each well except sterility control wells (column 12 of 96 well plate). Inoculated plates were incubated at 37° C. for 72 hours under anaerobic condition. After incubation, MIC was determined by adding Alamar blue dye.

[6] = Cells + P. acnes + Adapalene 0.04 μg/ml
[7] = Cells + P. acnes + Adapalene 0.4 μg/ml
[8] = Cutibacterium acnes, P. acnes strain V5-2, clinical isolate susceptible to clindamycin and erythromycin
[9] = Cutibacterium acnes, P. acnes strain V5-5, clinical isolate susceptible to clindamycin and erythromycin
[10] = Cutibacterium acnes, P. acnes strain V5-7, clinical isolate susceptible to clindamycin and erythromycin
[11] = Cutibacterium acnes, P. acnes strain V6-5, clinical isolate susceptible to clindamycin and erythromycin
[12] = Cutibacterium acnes, P. acnes strain V6-6, clinical isolate susceptible to clindamycin and erythromycin
[13] = Cutibacterium acnes, P. acnes strain V6-7, clinical isolate susceptible to clindamycin and erythromycin
[14] = Cutibacterium acnes, P. acnes strain V7-3, clinical isolate susceptible to clindamycin and erythromycin
[15] = Cutibacterium acnes, P. acnes strain V7-4, clinical isolate susceptible to clindamycin and erythromycin
[16] = Cutibacterium acnes, P. acnes strain V7-14, clinical isolate susceptible to clindamycin and erythromycin
[17] = Cutibacterium acnes, P. acnes strain V9-6E, clinical isolate susceptible to clindamycin and erythromycin
[18] = Cutibacterium acnes, P. acnes strain V13-3E, clinical isolate susceptible to clindamycin and erythromycin
[19] = Cutibacterium acnes, P. acnes strain V14-2E, clinical isolate susceptible to clindamycin and erythromycin
[20] = Cutibacterium acnes, P. acnes strain V17-3E, clinical isolate susceptible to clindamycin and erythromycin

| Compound | Effect on P. acnes-induced IL-6 levels (in words) [2] | Susceptibility of P. acnes isolated from volunteers V3 and V21 (in words) [5] | Susceptibility of clindamycin-nonresponder clinical isolates (in words) [5] | Susceptibility of clinical isolates susceptible to clindamycin and erythromycin (in words) [5] | MIC [5, 8] | MIC [5, 9] | MIC [5, 10] | MIC [5, 11] | MIC [5, 12] | MIC [5, 13] | MIC [5, 14] | MIC [5, 15] | MIC [5, 16] | MIC [5, 17] | MIC [5, 18] | MIC [5, 19] | MIC [5, 20] | further results |
| --- | --- | --- | --- | --- | --- | --- | --- | --- | --- | --- | --- | --- | --- | --- | --- | --- | --- | --- |
| COc1ccc(-c2ccc3cc(C(=O)O)ccc3c2)cc1C12CC3CC(CC(C3)C1)C2 [Adapalene, adapalene] | impart individual anti-inflammatory effects | – | – | – | – | – | – | – | – | – | – | – | – | – | – | – | – | Expression of Cytokines IL-8 (pg/ml) Mean [1, 6]: 2536.76 pg/mL; Expression of Cytokines IL-8 (pg/ml) Mean [1, 7]: 2579.87 pg/mL; Expression of Cytokines IL-6 (pg/ml) Mean [2, 6]: 308.82 pg/mL; Expression of Cytokines IL-6 (pg/ml) Mean [2, 7]: 162.76 pg/mL |
| N[C@@H]1CCCCN(c2c(F)cc3c(=O)c(C(=O)O)cn(C4CC4)c3c2Cl)C1 [Besifloxacin] | concentration-dependent inhibitory effect | susceptible | susceptible | susceptible | 0.5 µg/mL | 0.5 µg/mL | 0.5 µg/mL | 0.5 µg/mL | 0.5 µg/mL | 0.5 µg/mL | 0.5 µg/mL | 0.5 µg/mL | 0.5 µg/mL | 0.5 µg/mL | 0.5 µg/mL | 0.5 µg/mL | 0.5 µg/mL | MPC ([3]; P. acnes, 10^10 cells inoculum): 2 µg/mL; MPC/MIC ([3]; ratio against P. acnes): 4; MIC [4]: 0.5 µg/mL (≈ 1.27 µM); MIC ([5]; Cutibacterium acnes): 0.25 µg/mL; MIC ([5]; P. acnes strain V2-9, clinical isolate susceptible to clindamycin and erythromycin): 0.25 µg/mL; MIC ([5]; P. acnes strain V3-9, clinical isolate susceptible to clindamycin and erythromycin): 0.25 µg/mL; MIC ([5]; P. acnes strain V3-10, clinical isolate susceptible to clindamycin and erythromycin): 0.25 µg/mL; MIC ([5]; P. acnes strain V4-6, clinical isolate susceptible to clindamycin and erythromycin): 0.25 µg/mL; MIC ([5]; P. acnes strain V4-8, clinical isolate susceptible to clindamycin and erythromycin): 0.25 µg/mL; MIC ([5]; P. acnes strain V4-13, clinical isolate susceptible to clindamycin and erythromycin): 0.25 µg/mL; MIC ([5]; P. acnes strain V12-2E, clinical isolate susceptible to clindamycin and erythromycin): 0.25 µg/mL; MIC ([5]; P. acnes strain V15B-1E, clinical isolate susceptible to clindamycin and erythromycin): 0.25 µg/mL; MIC ([5]; P. acnes strain V18-4E, clinical isolate susceptible to clindamycin and erythromycin): 0.25 µg/mL; MIC ([5]; P. acnes strain V19-2E, clinical isolate susceptible to clindamycin and erythromycin): 0.25 µg/mL; MIC ([5]; P. acnes strain V20-5E, clinical isolate susceptible to clindamycin and erythromycin): 0.25 µg/mL |
| CC[C@H]1OC(=O)[C@H](C)[C@@H](O[C@H]2C[C@@](C)(OC)[C@@H](O)[C@H](C)O2)[C@H](C)[C@@H](O[C@@H]2O[C@H](C)C[C@H](N(C)C)[C@H]2O)[C@](C)(O)C[C@@H](C)C(=O)[C@H](C)[C@@H](O)[C@]1(C)O [Erythromycin, erythromycin] | – | resistance | wide variation in sensitivity | susceptible | < 0.03 µg/mL | < 0.03 µg/mL | < 0.03 µg/mL | < 0.03 µg/mL | < 0.03 µg/mL | < 0.03 µg/mL | < 0.03 µg/mL | < 0.03 µg/mL | < 0.03 µg/mL | < 0.09 µg/mL | < 0.09 µg/mL | < 0.09 µg/mL | 0.78 µg/mL | MIC ([5]; Cutibacterium acnes, P. acnes strain V2-9, clinical isolate susceptible to clindamycin and erythromycin): < 0.03 µg/mL; MIC ([5]; Cutibacterium acnes, P. acnes strain V2-10, clinical isolate susceptible to clindamycin and erythromycin): < 0.03 µg/mL; MIC ([5]; Cutibacterium acnes, P. acnes strain V3-9, clinical isolate susceptible to clindamycin and erythromycin): < 0.03 µg/mL; MIC ([5]; Cutibacterium acnes, P. acnes strain V3-10, clinical isolate susceptible to clindamycin and erythromycin): < 0.03 µg/mL; MIC ([5]; Cutibacterium acnes, P. acnes strain V4-6, clinical isolate susceptible to clindamycin and erythromycin): < 0.03 µg/mL; MIC ([5]; Cutibacterium acnes, P. acnes strain V4-8, clinical isolate susceptible to clindamycin and erythromycin): < 0.03 µg/mL; MIC ([5]; Cutibacterium acnes, P. acnes strain V4-13, clinical isolate susceptible to clindamycin and erythromycin): < 0.03 µg/mL; MIC ([5]; Cutibacterium acnes, P. acnes strain V12-2E, clinical isolate susceptible to clindamycin and erythromycin): < 0.09 µg/mL; MIC ([5]; Cutibacterium acnes, P. acnes strain V15B-1E, clinical isolate susceptible to clindamycin and erythromycin): 0.19 µg/mL; MIC ([5]; Cutibacterium acnes, P. acnes strain V18-4E, clinical isolate susceptible to clindamycin and erythromycin): 0.19 µg/mL; MIC ([5]; Cutibacterium acnes, P. acnes strain V19-2E, clinical isolate susceptible to clindamycin and erythromycin): < 0.09 µg/mL; MIC ([5]; Cutibacterium acnes, P. acnes strain V20-5E, clinical isolate susceptible to clindamycin and erythromycin): < 0.09 µg/mL |
